Results on six compounds are retold here after patent publication US11541055B2, “Inhibitors of human immunodeficiency virus replication” (ViiV Healthcare UK (No. 5) LIMITED, priority 2018, dated 2023).

For data set [1], the system named is recombinant NL4-3 virus (Renilla luciferase) in MT-2 cells. In words: HIV cell culture assay (antiviral activity, luciferase readout). It is filed as cell-based. The following applies: Renilla, NL43. As for the experimental part:
HIV cell culture assay—MT-2 cells, 293T cells and the proviral DNA clone of NL4-3 virus were obtained from the NIH AIDS Research and Reference Reagent Program. MT-2 cells were propagated in RPMI 1640 media supplemented with 10% heat inactivated fetal bovine serum (FBS), […]. The 293T cells were propagated in DMEM media supplemented with 10% heat inactivated FBS, […] penicillin G and […] streptomycin. A recombinant NL40.3 proviral clone, in which a section of the nef gene was replaced with the Renilla luciferase gene, was used to make the reference virus used in these studies. The recombinant virus was prepared through transfection of the recombinant NL4-3 proviral clone into 293T cells using Transit-293 Transfection Reagent from Minis Bio LLC (Madison, Wis.). Supernatent was harvested after 2-3 days and the amount of virus present was titered in MT-2 cells using luciferase enzyme activity as a marker by measuring luciferase enzyme activity. Luciferase was quantitated using the EnduRen Live Cell Substrate from Promega (Madison, Wis.). Antiviral activities of compounds toward the recombinant virus were quantified by measuring luciferase activity in MT-2 cells infected for 4-5 days with the recombinant virus in the presence of serial dilutions of the compound.
The 50% effective concentration (EC50) was calculated by using the exponential form of the median effect equation where (Fa)=1/[1+(ED50/drug conc.)m] (Johnson V A, Byington R T. Infectivity Assay. In Techniques in HIV Research. ed. Aldovini A, Walker B D. 71-76. New York: Stockton Press. 1990). The 50% inhibitory concentration (EC50) was calculated by using the exponential form of the median effect equation where percent inhibition=1/[1+(EC50/drug concentration)m], where m is a parameter that reflects the slope of the concentration-response curve.

Data set [2] is described as follows: Compound cytotoxicity, XTT-based colorimetric assay. It is filed as cell-based. The note with it: human; uninfected MT2 cells, day 4, XTT. As for the experimental part:
Compound cytotoxicity and the corresponding CC50 values were determined using the same protocol as described in the antiviral assay except that uninfected cells were used. Cytotoxicity was assessed on day 4 in uninfected MT2 cells by using a XTT (2,3-bis[2-Methoxy-4-nitro-5-sulfophenyl]-2H-tetrazolium-5-carboxyanilide inner salt)-based colorimetric assay (Sigma-Aldrich, St Louis, Mo.).
Background: Tetrazolium assays rely on reduction of a dye to a coloured formazan, in cell work by metabolically active cells.

As a reminder, the EC50 is the concentration giving half of the maximal effect. In general, CC50 refers to the concentration giving 50% cytotoxicity. Lower therefore signals greater toxicity to the cells. Turning to `Cc1nc(C)c(C)c(-c2ccc3c(=O)n(-c4ccc(Cl)c5c(NS(C)(=O)=O)nn(CC(F)(F)F)c45)c([C@H](Cc4cc(F)cc(F)c4)NC(=O)Cn4nc(C(F)F)c5c4C(F)(F)[C@@H]4C[C@H]54)nc3c2)n1` (atropisomer, axis not shown) [Example 109, N-[(1S)-1-{3-[4-chloro-3-methanesulfonamido-1-(2,2,2-trifluoroethyl)-1H-indazol-7-yl]-4-oxo-7-(2,5,6-trimethylpyrimidin-4-yl)-3,4-dihydroquinazolin-2-yl}-2-(3,5-difluorophenyl)ethyl]-2-[(2S,4R)-9-(difluoromethyl)-5,5-difluoro-7,8-diazatricyclo[4.3.0.0^2,^4]nona-1(6),8-dien-7-yl]acetamide], the EC50 in data set [1] worked out at 0.11 nM. In data set [2], this compound registered a CC50 at 4 days of over 500 nM.
For `COc1ccc(-c2ccc3c(=O)n(-c4ccc(Cl)c5c(NS(C)(=O)=O)nn(CC(F)(F)F)c45)c([C@H](Cc4cc(F)cc(F)c4)NC(=O)Cn4nc(C(F)F)c5c4C(F)(F)[C@@H]4C[C@H]54)nc3c2)nn1` (atropisomer, axis not shown) [Example 110, N-[(1S)-1-{3-[4-chloro-3-methanesulfonamido-1-(2,2,2-trifluoroethyl)-1H-indazol-7-yl]-7-(6-methoxypyridazin-3-yl)-4-oxo-3,4-dihydroquinazolin-2-yl}-2-(3,5-difluorophenyl)ethyl]-2-[(2S,4R)-9-(difluoromethyl)-5,5-difluoro-7,8-diazatricyclo[4.3.0.0^2,^4]nona-1(6),8-dien-7-yl]acetamide] the same measures were 0.071 nM and over 500 nM.
For `CCc1ccnc(-c2ccc3c(=O)n(-c4ccc(Cl)c5c(NS(C)(=O)=O)nn(CC(F)(F)F)c45)c([C@H](Cc4cc(F)cc(F)c4)NC(=O)Cn4nc(C(F)F)c5c4C(F)(F)[C@@H]4C[C@H]54)nc3c2)n1` (atropisomer, axis not shown) [Example 111, N-[(1S)-1-{3-[4-chloro-3-methanesulfonamido-1-(2,2,2-trifluoroethyl)-1H-indazol-7-yl]-7-(4-ethylpyrimidin-2-yl)-4-oxo-3,4-dihydroquinazolin-2-yl}-2-(3,5-difluorophenyl)ethyl]-2-[(2S,4R)-9-(difluoromethyl)-5,5-difluoro-7,8-diazatricyclo[4.3.0.0^2,^4]nona-1(6),8-dien-7-yl]acetamide], in that order: 0.11 nM and over 500 nM.
As to `CS(=O)(=O)Nc1nn(CC(F)(F)F)c2c(-n3c([C@H](Cc4cc(F)cc(F)c4)NC(=O)Cn4nc(C(F)F)c5c4C(F)(F)[C@@H]4C[C@H]54)nc4cc(-c5ncccc5S(C)(=O)=O)ccc4c3=O)ccc(Cl)c12` (atropisomer, axis not shown) [Example 112], the EC50 in data set [1] turned out to be 0.075 nM. The compound further came in with a CC50 at 4 days in data set [2] of over 500 nM.
With `Cc1ccc(F)c(-c2ccc3c(=O)n(-c4ccc(Cl)c5c(NS(C)(=O)=O)nn(CC(F)(F)F)c45)c([C@H](Cc4cc(F)cc(F)c4)NC(=O)Cn4nc(C(F)F)c5c4C(F)(F)[C@@H]4C[C@H]54)nc3c2)n1` (atropisomer, axis not shown) [Example 113], the EC50 in data set [1] stood at 0.1 nM. The compound also yielded a CC50 at 4 days in data set [2] of over 500 nM.
As to `Cc1ncc(-c2ccc3c(=O)n(-c4ccc(Cl)c5c(NS(C)(=O)=O)nn(CC(F)(F)F)c45)c([C@H](Cc4cc(F)cc(F)c4)NC(=O)Cn4nc(C(F)F)c5c4C(F)(F)[C@@H]4C[C@H]54)nc3c2)s1` (atropisomer, axis not shown) [Example 114], the EC50 in data set [1] was 0.15 nM. This compound registered a CC50 at 4 days in data set [2] of over 500 nM.
